Laboratory results taken from ChEMBL document CHEMBL1201862, “PubChem BioAssay data set” (2004).
Active and inactive are the calls of the source.

Legend:
[1] = NIH-3T3 fibroblast cytotoxicity, dose response, cytotoxicity control, cell-based, fluorescence, Alamar Blue, secondary assay (AID 2327); format: functional;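 further: NIH-3T3 mouse fibroblasts cultured with fluconazole at 8 µg/mL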
[2] = test system: Streptococcus sp. 'group A'; assay: growth inhibition of control SK(-) GAS strain, dose response, counter-screen for streptokinase expression inhibitor project, luminescence, kanamycin, BacTiterGlo, confirmation (AID 1900); format: functional, organism-based
[3] = C. albicans growth with fluconazole, confirmation, fluorescence, retest (AID 2467); format: functional, cell-based
[4] = Luminescence-based counterscreen assay for KLF5 inhibitors: dose response cell-based high throughput screening assay to identify cytotoxic compounds using the IEC-6 intestinal epithelial cell line. [Related pubchem assays: 1700 (Primary screen.), 1834 (Confirmation screen.), 1858 (Summary AID.), 1905 (Counterscreen.)]; format: functional
[5] = target: T1, Serine/threonine-protein phosphatase (Candida dubliniensis (strain CD36 / CBS 7987 / NCPF 3949 / NRRLY-17841) (Yeast), UniProt B9W6M3); assay: calcineurin pathway inhibitors in yeast reporter, dose response, S. cerevisiae, CDRE-lacZ, luminescence, secondary (AID 2388); format: functional, cell-based;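 further: yeast reporter cells carrying a calcineurin-responsive lacZ construct stimulated with calcium chloride; luminescent beta-galactosidase reporter signal in whole cells rather than isolated phosphatase activity; potency for inhibition where a drop in reporter signal means calcineurin blockade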
T1 sequence (B9W6M3 whole entry): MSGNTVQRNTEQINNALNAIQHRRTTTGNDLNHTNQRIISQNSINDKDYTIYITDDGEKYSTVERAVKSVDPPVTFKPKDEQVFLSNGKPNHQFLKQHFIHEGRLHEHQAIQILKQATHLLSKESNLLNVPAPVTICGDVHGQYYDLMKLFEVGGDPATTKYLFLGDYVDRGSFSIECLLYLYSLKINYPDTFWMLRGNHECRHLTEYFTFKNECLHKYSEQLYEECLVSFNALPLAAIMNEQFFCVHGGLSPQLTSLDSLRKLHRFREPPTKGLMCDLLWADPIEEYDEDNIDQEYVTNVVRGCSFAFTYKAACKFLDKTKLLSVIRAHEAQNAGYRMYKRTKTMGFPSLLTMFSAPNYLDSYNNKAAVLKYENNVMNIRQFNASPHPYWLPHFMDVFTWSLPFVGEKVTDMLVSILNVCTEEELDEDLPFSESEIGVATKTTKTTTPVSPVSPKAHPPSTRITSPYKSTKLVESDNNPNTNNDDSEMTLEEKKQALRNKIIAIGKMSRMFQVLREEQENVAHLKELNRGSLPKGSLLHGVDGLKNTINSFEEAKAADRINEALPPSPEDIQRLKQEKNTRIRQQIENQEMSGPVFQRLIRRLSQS

[6] = test system: Streptococcus; assay: Group A Streptococcus viability loss, dose response, counter-screen for streptokinase expression inhibitor project, luminescence, BacTiterGlo (AID 1915); format: functional, organism-based;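 further: potency for reduction of bacterial viability or growth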
[7] = target: Nonstructural protein 1 (Influenza A virus, UniProt Q194T2); format: functional, Influenza A virus (A/California/07/2009(H1N1))
Chain of Nonstructural protein 1 (Q194T2 whole entry): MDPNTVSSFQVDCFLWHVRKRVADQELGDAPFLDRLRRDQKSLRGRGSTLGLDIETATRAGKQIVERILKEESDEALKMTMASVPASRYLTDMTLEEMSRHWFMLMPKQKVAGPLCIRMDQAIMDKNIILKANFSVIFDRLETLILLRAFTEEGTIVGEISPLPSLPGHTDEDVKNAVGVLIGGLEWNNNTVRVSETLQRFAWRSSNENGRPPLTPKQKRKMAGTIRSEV

[8] = test system: INS1; assay: beta cell apoptosis inhibitors, cytokine rescue, dose response, luminescence, retest (AID 449756); format: functional, cell-based; conditions: Rattus norvegicus;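 further: cell death triggered by IL-1 beta plus TNF-alpha plus IFN-gamma mixture; protective hits raise ATP signal compared with cytokine alone wells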
[9] = target: ATP-dependent molecular chaperone HSP82 (Candida albicans (strain WO-1) (Yeast), UniProt C4YTQ8); assay: loss of DOC-induced GRE-beta-galactosidase reporter signal, dose response, Hsp90 inhibitor project, S. cerevisiae, luminescence (AID 2400); format: functional, cell-based;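 further: beta-galactosidase luminescence from glucocorticoid response element reporter as proxy for Hsp90 function; inhibitor potency where signal loss means Hsp90 inhibition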
Chain of ATP-dependent molecular chaperone HSP82 (C4YTQ8 whole entry): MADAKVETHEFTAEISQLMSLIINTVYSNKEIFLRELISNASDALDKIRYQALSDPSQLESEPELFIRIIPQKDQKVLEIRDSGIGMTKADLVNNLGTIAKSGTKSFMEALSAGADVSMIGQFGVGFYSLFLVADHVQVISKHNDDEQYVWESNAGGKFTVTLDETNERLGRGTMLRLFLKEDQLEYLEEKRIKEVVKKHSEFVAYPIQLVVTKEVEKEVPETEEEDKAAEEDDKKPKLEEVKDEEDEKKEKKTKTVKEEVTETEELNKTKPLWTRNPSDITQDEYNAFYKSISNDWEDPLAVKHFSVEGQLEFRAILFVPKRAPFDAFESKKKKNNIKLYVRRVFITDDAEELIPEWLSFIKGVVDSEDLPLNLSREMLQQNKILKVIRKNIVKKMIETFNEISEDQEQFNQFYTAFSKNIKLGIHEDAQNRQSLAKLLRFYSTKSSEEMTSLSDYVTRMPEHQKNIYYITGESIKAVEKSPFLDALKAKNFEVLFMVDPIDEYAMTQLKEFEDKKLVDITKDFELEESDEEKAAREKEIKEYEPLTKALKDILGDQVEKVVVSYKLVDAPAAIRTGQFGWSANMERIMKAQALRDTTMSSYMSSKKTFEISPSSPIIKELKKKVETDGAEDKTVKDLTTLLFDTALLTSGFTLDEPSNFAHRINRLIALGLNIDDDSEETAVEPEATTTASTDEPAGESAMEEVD

[10] = target: Paired box protein Pax-8 (Homo sapiens, UniProt Q06710); assay: inhibitors of PAX8-driven TPO luciferase reporter, dose response, RMG-I cells, cherry-pick (AID 687027); format: functional, cell-based;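 further: luciferase reporter driven by Pax8 target thyroperoxidase promoter measured by SteadyGlo luminescence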
Chain of Paired box protein Pax-8 (Q06710 whole entry): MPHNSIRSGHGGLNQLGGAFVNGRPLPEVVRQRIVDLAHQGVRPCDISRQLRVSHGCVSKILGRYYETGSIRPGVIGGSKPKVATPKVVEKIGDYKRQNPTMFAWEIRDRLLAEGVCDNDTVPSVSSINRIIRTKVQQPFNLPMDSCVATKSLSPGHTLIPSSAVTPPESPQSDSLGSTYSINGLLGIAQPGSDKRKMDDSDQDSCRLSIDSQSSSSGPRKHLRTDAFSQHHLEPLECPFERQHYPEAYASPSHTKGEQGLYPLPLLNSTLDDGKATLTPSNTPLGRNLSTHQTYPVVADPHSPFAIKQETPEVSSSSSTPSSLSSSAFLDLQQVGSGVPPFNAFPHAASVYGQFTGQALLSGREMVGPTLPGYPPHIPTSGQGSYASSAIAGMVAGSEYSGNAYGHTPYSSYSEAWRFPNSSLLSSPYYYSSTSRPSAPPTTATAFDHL

[11] = target: T2, Alkaline phosphatase, tissue-nonspecific isozyme (Homo sapiens, UniProt P05186)
T2 sequence (P05186 whole entry): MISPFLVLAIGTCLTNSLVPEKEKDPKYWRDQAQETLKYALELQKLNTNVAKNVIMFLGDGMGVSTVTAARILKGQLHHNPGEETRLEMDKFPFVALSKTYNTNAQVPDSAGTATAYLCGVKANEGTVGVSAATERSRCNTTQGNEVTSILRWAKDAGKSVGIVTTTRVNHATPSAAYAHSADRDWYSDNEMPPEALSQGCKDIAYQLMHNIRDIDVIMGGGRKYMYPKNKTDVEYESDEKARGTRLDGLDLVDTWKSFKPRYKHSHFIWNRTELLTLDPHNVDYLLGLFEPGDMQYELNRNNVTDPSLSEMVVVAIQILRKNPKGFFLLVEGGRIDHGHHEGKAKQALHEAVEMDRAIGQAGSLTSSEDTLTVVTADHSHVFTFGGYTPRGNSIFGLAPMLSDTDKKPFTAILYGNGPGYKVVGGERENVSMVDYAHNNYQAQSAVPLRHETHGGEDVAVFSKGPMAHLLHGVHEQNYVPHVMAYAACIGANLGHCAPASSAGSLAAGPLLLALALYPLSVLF

[12] = target: T3, Mucolipin-3 (Homo sapiens, UniProt Q8TDD5); assay: Dose response cell-based high-throughput screening assay for agonists of the transient receptor potential channel ML3 (TRPML3). [Related pubchem assays: 1526, 1424, 1448 ]; format: functional
T3 sequence (Q8TDD5 whole entry): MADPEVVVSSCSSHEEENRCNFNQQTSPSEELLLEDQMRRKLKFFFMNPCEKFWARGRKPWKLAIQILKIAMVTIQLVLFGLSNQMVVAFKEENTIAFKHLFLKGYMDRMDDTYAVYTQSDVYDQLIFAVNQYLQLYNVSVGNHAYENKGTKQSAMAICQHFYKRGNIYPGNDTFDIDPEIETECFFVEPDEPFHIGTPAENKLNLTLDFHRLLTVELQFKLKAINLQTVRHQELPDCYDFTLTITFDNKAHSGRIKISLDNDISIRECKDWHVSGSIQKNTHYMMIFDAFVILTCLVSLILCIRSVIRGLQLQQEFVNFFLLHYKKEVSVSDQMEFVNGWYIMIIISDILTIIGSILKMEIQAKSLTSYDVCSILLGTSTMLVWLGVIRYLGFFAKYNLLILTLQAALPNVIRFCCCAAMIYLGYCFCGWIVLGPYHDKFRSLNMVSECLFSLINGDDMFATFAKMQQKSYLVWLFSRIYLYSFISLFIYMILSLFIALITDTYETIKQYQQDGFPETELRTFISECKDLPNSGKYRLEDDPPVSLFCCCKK

[13] = target: Ion channel NompC (Danio rerio, UniProt Q7T1G6); assay: Fluorescence counterscreen assay for TRPML3 agonists: dose response cell-based high-throughput screening assay to identify agonists of the transient receptor potential channel N1 (TRPN1). [Related pubchem assays: 1526, 1424, 1448 ]; format: functional
[14] = target: Hexokinase HKDC1 (Homo sapiens, UniProt Q2TB90); assay: HKDC1 hexokinase inhibitors, dose response, biochemical, W721R variant (AID 504729); format: functional
Chain of Hexokinase HKDC1 (Q2TB90 whole entry): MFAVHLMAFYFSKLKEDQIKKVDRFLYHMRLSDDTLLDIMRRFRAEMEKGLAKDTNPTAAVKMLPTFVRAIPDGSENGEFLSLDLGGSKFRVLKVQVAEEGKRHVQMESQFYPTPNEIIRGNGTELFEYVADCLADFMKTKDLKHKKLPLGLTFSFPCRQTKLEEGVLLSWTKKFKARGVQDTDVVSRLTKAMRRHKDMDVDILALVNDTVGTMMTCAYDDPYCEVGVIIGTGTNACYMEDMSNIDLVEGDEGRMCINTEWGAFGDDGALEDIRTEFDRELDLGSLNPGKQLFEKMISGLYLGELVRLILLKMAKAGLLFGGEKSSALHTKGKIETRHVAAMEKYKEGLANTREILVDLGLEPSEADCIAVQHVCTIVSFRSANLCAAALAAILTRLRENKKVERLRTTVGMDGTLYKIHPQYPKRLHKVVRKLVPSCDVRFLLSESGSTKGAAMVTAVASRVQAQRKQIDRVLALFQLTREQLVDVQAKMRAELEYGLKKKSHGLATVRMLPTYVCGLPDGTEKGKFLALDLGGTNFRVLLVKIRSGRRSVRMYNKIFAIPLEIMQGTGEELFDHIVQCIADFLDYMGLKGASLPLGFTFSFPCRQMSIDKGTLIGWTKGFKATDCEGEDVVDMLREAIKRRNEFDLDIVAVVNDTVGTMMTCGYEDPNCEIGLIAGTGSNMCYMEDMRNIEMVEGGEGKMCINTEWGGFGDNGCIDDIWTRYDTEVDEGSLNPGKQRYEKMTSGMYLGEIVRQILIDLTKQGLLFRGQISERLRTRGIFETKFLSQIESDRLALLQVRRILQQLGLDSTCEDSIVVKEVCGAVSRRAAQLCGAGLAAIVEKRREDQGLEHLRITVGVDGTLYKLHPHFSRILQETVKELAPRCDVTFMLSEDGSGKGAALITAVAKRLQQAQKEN

[15] = inhibitors of intracellular T. cruzi replication, confirmation, NIH3T3 host cells, beta-gal luminescence (AID 2044); format: functional, cell-based;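 further: intracellular parasites grown in NIH/3T3 mouse fibroblasts as host cells; luminescent beta-galactosidase reporter signal from transgenic T. cruzi replicating inside host cells; inhibitors lower the luminescence signal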
[16] = target: T4, Kappa-type opioid receptor (Homo sapiens, UniProt P41145); format: functional
T4 sequence (P41145 whole entry): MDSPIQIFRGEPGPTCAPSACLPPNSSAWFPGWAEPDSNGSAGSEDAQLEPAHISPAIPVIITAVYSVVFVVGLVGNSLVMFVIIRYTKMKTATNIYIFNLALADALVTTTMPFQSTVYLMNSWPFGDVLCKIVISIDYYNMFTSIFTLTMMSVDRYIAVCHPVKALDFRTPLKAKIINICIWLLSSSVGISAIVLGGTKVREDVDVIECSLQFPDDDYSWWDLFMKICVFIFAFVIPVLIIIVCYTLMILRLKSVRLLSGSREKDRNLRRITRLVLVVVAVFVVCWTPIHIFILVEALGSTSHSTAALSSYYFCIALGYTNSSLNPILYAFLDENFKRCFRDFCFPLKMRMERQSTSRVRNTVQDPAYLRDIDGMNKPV

[17] = cytotoxicity toward NIH3T3 fibroblasts, dose response, counter-screen, cell-based, ATP luminescence, mouse fibroblasts (AID 2010); format: functional;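 further: cells exposed to compound for about 90 hours before reading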
[18] = target: Beta-galactosidase (Escherichia coli, UniProt Q8VNN2); format: functional
Chain of Beta-galactosidase (Q8VNN2 whole entry): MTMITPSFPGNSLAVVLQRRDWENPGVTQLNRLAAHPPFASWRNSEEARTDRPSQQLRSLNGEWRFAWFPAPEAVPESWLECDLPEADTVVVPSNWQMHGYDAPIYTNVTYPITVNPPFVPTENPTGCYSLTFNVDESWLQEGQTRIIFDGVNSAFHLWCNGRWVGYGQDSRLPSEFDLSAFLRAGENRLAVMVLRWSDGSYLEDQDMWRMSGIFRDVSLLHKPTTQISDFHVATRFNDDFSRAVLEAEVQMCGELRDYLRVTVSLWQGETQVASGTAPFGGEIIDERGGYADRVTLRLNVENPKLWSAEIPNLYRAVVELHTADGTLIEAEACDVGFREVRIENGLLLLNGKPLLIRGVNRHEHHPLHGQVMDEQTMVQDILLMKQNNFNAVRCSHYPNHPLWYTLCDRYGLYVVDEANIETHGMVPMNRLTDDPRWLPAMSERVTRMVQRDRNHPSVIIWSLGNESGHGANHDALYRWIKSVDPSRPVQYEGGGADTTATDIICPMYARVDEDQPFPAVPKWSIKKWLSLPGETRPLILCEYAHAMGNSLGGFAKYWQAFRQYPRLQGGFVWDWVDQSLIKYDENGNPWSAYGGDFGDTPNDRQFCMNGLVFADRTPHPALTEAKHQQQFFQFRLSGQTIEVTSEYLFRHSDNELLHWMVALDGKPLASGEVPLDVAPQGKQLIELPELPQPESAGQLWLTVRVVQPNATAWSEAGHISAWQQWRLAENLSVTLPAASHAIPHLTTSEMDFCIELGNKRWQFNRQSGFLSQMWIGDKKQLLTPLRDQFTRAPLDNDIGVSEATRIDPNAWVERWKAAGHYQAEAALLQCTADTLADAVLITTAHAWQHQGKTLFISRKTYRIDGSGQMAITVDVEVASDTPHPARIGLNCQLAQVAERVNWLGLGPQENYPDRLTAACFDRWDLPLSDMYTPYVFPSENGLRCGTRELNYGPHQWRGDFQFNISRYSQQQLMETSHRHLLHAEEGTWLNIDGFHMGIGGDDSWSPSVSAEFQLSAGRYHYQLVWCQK

[19] = target: T4, Kappa-type opioid receptor; format: functional; remark: listed apart in the source

In the case of `CCN(CC)S(=O)(=O)c1cc(OC)ccc1N=Nc1ccc(O)c2ncccc12`, the EC50 [1] is reported as 96.3 µM (active), the EC50 [2] is reported as 1.61 µM (active) and the EC50 [3] is reported as 524 nM (active). For the same molecule, the IC50 [4] was 15.7 µM (not active), the EC50 [5] was > 180 µM (inactive) and the EC50 [6] was 8.84 µM (active). The IC50 [7] was 11.7 µM (active), the AC50 [8] was 2.41 µM (active) and the EC50 [9] was 13.5 µM (active). For the same molecule, the AC50 [10] was 1.27 µM (active).

For `Cc1ccc(OCC(=O)Nc2ccc3c(c2)OCCO3)cc1C`, the EC50 [11] was > 100 µM (not active).

For `Cc1ccc(S(=O)(=O)Nc2cc(C(F)(F)F)ccc2N2CCOCC2)c(C)c1`, the EC50 [12] was 2.48 µM (active) and the EC50 [13] was > 29.9 µM (not active).

In the case of `Cc1cccc(C)c1Nc1nnc(SCc2cn3cccc(C)c3n2)s1`, the IC50 [14] is reported as > 80 µM (inactive).

With `Cc1ccccc1NC(=O)c1ccc(Nc2c([N+](=O)[O-])cc([N+](=O)[O-])c3ccccc23)cc1` the EC50 [15] was 937 nM (active), the IC50 [16] was 9.63 µM (active) and the EC50 [17] was > 60 µM (inconclusive). The EC50 [18] was 11.3 µM (active) and the IC50 [19] was greater than 32 µM.
